Measured values as given in PubChem BioAssay (NCI).
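A five-concentration, 48-hour dose response in 96-well plates underlies each endpoint, interpolated linearly between surrounding concentrations. GI50 = concentration required for 50% inhibition of growth. TGI marks complete inhibition of growth.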

What was measured:
Test in all cases: NCI-60 cell line screen, 48 h
A549 NSCLC = system: A549 NSCLC
SNB-75 CNS = system: SNB-75 CNS
IGROV1 ovarian = system: IGROV1 ovarian
U251 CNS = system: U251 CNS
LOX IMVI melanoma = system: LOX IMVI melanoma
DU-145 prostate = system: DU-145 prostate
SN12C renal = system: SN12C renal
HS 578T breast = system: HS 578T breast
NCI/ADR-RES ovarian = system: NCI/ADR-RES ovarian
SK-OV-3 ovarian = system: SK-OV-3 ovarian

| SMILES | GI50 (A549 NSCLC) [µM] | TGI (A549 NSCLC) [µM] | GI50 (SNB-75 CNS) [µM] | TGI (SNB-75 CNS) [µM] | GI50 (IGROV1 ovarian) [µM] | TGI (IGROV1 ovarian) [µM] | GI50 (U251 CNS) [µM] | TGI (U251 CNS) [µM] | GI50 (LOX IMVI melanoma) [µM] | TGI (LOX IMVI melanoma) [µM] | GI50 (DU-145 prostate) [µM] | TGI (DU-145 prostate) [µM] | GI50 (SN12C renal) [µM] | TGI (SN12C renal) [µM] | GI50 (HS 578T breast) [µM] | TGI (HS 578T breast) [µM] | GI50 (NCI/ADR-RES ovarian) [µM] | TGI (NCI/ADR-RES ovarian) [µM] | GI50 (SK-OV-3 ovarian) [µM] | TGI (SK-OV-3 ovarian) [µM] |
| --- | --- | --- | --- | --- | --- | --- | --- | --- | --- | --- | --- | --- | --- | --- | --- | --- | --- | --- | --- | --- |
| CN1CCC(n2cnc(-c3ccc(F)cc3)c2-c2ccnc(N)n2)CC1 | 7.47 | > 25 | 10 | > 23.9 | 6.48 | > 20.7 | 8.53 | > 25 | 6.95 | > 25 | 10.7 | > 25 | 6.43 | > 25 | 15.3 | > 25 | 7.55 | > 25 | 10.8 | > 25 |
| Cn1cncc1CC1COC(=O)C1C(O)c1ccccc1 (stereo not given) |  | > 100 |  | > 100 |  | > 100 |  | > 100 |  | > 100 |  | > 100 |  | > 100 |  | > 100 |  | > 100 |  | > 100 |
| CCOc1nc(N)nc(C)c1N=Nc1ccc(Cl)cc1 |  | > 100 |  | > 100 |  | > 100 |  | > 100 |  | > 100 |  | > 100 |  | 86.4 |  | 38.4 |  | > 100 |  | > 100 |
| Cn1cc(-c2nonc2-c2cn(C)c3ccccc23)c2ccccc21 | 1.22 | > 100 | 0.176 | 0.842 | 1.53 | > 100 | 0.689 | > 100 | 1.24 | > 100 | 1.27 | > 100 | 1.76 | > 100 | 0.508 | 24.6 | 0.626 | > 100 | 1.28 | > 100 |
| O=[N+]([O-])c1cc(S(=O)(=O)Oc2ccccc2)ccc1Cl | 3.43 | 14.5 | 2.54 | 6.5 | 1.77 | 3.22 | 1.27 | 2.6 | 1.78 | 3.69 | 1.83 | 3.24 | 3.56 | 13.6 | 2.7 | 6.73 | 8.27 | 45.3 | 6.21 | 18.8 |
| CCC1(O)C(=O)OCc2c1cc1n(c2=O)Cc2cc3cc(N)ccc3nc2-1 (stereo not given) |  | 2.41 |  | 0.0375 |  | > 55.2 |  | 0.129 |  | 0.059 |  | < 0.01 |  | 0.697 |  | > 95.2 |  | 0.266 |  | 0.207 |
| CN(CC(N)=O)C(=O)N(CCCl)N=O |  | > 100 |  | > 100 |  | > 100 |  | > 100 |  | > 100 |  | > 100 |  | > 100 |  | > 100 |  | > 100 |  | > 100 |
| CN1CCN(CC(O)COc2c(Br)c(Br)c(Br)c3c2OC(C)(C)C3)CC1 (stereo not given) | 10.6 | 30.4 | 7.79 | 27 | 5.36 | 25.1 | 3.56 | 12.9 | 1.92 | 3.36 | 11.8 | 24.5 | 11.8 | 31.6 | 10.4 | 42.7 | 15.9 | 49 | 18.4 | 38.4 |
| Nc1ccc(-c2nc3ccccc3[nH]2)c2ccccc12 | 6.6 | 50.3 | 0.809 | 4.39 | 3.36 | 42.6 | 4.12 | 30.6 | 4.97 | 48.1 | 2.81 | > 22.3 | 10.1 | 59.7 | 3.5 | > 30 | 2.08 | 7.37 | 3.23 | 57.5 |
| CC(C)(C)CN1CCn2c(nc3c(N)nccc32)S1 | 8.09 | 44.4 | 51.5 | > 100 | 11.7 | 30.3 | 13.3 | 47.2 | 9.5 | 23.5 | 4.46 | > 100 | 6.55 | > 100 | 33.6 | > 100 | 17.1 | > 100 | 5.15 | 81 |
